Assay [1] concerns the target T1, rec-CgHMGR (CgHMGR) (Nakaseomyces glabratus, UniProt Q6FKH6).
T1 construct: gene HMG1; transmembrane region removed), pPICZB, His-tagged, expressed in Pichia pastoris X-33, Ni-NTA purified, approx. 48 kDa by SDS-PAGE
T1 sequence (Q6FKH6 619-1056 limits assumed): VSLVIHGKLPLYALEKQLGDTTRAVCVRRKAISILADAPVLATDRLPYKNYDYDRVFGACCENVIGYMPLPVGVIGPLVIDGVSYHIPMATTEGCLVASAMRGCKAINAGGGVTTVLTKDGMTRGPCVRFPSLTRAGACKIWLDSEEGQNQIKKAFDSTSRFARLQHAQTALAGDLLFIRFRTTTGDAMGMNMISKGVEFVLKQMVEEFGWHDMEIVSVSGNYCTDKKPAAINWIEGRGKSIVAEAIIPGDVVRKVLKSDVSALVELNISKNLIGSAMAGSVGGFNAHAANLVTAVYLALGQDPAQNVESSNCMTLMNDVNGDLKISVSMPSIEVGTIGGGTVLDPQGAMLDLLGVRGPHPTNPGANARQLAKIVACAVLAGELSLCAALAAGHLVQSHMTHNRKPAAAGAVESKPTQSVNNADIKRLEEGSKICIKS
Put plainly: NADPH oxidation at […] nm. The format is biochemical. To be noted: read-out: Inhibition (% of Relative Activity) *.

The target of assay [2] is T1, rec-CgHMGR (CgHMGR). Put plainly: NADPH oxidation at […] nm. It is filed as biochemical. Conditions: HMG-CoA, 50 mM Tris-HCl pH 8.0, 37 °C.

The record followed here is PMC10706242, “Inhibitors of 3-Hydroxy-3-methylglutaryl Coenzyme A Reductase Decrease the Growth, Ergosterol Synthesis and Generation of petite Mutants in Candida glabrata and Candida albicans” (International Journal of Molecular Sciences, 2023).

By inhibition is commonly meant the relative decrease from the control value, in per cent.

In the case of `CCCc1cc(OC)c(OC)cc1O` [7a], at rec-CgHMGR (CgHMGR) [1], the inhibition at 100 µM worked out at 66 ± 2.08%.

For the compound `NC(=O)C1=CN([C@@H]2O[C@H](COP(=O)(O)OP(=O)(O)OC[C@H]3O[C@@H](n4cnc5c(N)ncnc54)[C@H](OP(=O)(O)O)[C@@H]3O)[C@@H](O)[C@H]2O)C=CC1` [NADPH], the “NADPH oxidation at 340 nm” value on rec-CgHMGR (CgHMGR) [2] is “converted into its oxidized form by the catalytic subunit of HMGR in the presence of HMG-CoA”. On to `CCCc1cc(OC)c(OCC(=O)OC)cc1O` [1b], for which, at rec-CgHMGR (CgHMGR) [1], the inhibition at 100 µM stood at 89 ± 1.24%. Take `CCCc1cc(OC)c(OCC(=O)OC)cc1[N+](=O)[O-]` [1a]: the inhibition at 100 µM at rec-CgHMGR (CgHMGR) [1] was determined as 73 ± 1.52%. As to `CCc1ccc(OCC(=O)OC)c([N+](=O)[O-])c1` [6g], the inhibition at 100 µM at rec-CgHMGR (CgHMGR) [1] came to 86 ± 3.21%.
